For one data set, the target named is FABP5 (Homo sapiens (Human), UniProt Q01469). The experiment in a line: Fluorescence (ANS) competition binding assay, FABP5. To be noted: ANS displacement. How it is done: (§1) This example illustrates a two-step fluorescence binding assay study used to determine the binding affinity of the various inhibitor compounds disclosed herein with the various FABPs: FABP3, FABP4, FABP5 and FABP7. Further secondary screening studies were carried out for compounds with high binding affinities toward the FABPs and based on their ability to activate the nuclear receptors PPARα, PPARγ, or PPARδ.
(§2) Binding assays for FABP3, FABP4, FABP5 and FABP7 were carried out by fluorescence titrations. His-tagged FABPs were bacterially expressed in E. coli, purified using Ni Sepharose beads, and the equilibrium dissociation constants (Kd) that characterize their interactions with different inhibitor compounds were measured by fluorescence competition assays. The method entails two steps as described in e.g., Lin, Q. et al., “Ligand selectivity of the peroxisome proliferator-activated receptor alpha,” Biochemistry 38, 185-190, doi:10.1021/bi9816094 [pii](1999). In the first step, Kd for the association of the protein with the fluorescent fatty acid probe ANS was measured. Protein (2 μM) was titrated with ANS from a concentrated solution in DMSO. Ligand binding was monitored by following the increase in the fluorescence of the ligand upon binding to the protein, and Kd for the association of ANS with the each FABP was computed from titration curves as described in e.g., Norris, A. W. & Li, E., “Fluorometric titration of the CRABPs,” Methods Mol Biol 89, 123-139 (1998)). In the second step, Kds for binding of non-fluorescent ligands were measured by monitoring their ability to displace ANS in the binding pocket of the protein. Each FABP was precomplexed with ANS at 1:1 molar ratio and titrated with the different compounds whose binding was reflected by a decrease in probe fluorescence. Kds were extracted from the EC50 of the competition curve and the measured Kd for ANS.

For another data set, the target named is FABP3 (Homo sapiens (Human), UniProt P05413). The experiment in a line: Fluorescence (ANS) competition binding assay, FABP3. To be noted: ANS displacement. How it is done:
as §1, §2

The target of the next data set is FABP7 (Homo sapiens (Human), UniProt O15540). The experiment in a line: Fluorescence (ANS) competition binding assay, FABP7. To be noted: ANS displacement. How it is done: as §1, §2
The target in a further data set is FABP4 (Homo sapiens (Human), UniProt P15090). The experiment in a line: Fluorescence (ANS) competition binding assay, FABP4. The settings on record: ANS displacement. As for the experimental part: as §1, §2
A short description of data set [1]: Single dose IV and PO PK study in C57BL/6 mice. Format: in vivo. To be noted: mouse, plasma; male C57BL/6 mice, single oral dose 10 mg/kg. As for the experimental part:
C57BL/6 male mice or Han Wistar rats were used, n=3 for each administration route and compound. Single dose of each compound was administered orally (PO, 10 mg/Kg) or by intravenous administration (IV, 1 mg/Kg). Following intravenous and oral administration, blood samples (ca 0.2 mL) were collected and compound amount was measured by HLPC. For IV group, blood samples were collected at 0.083, 0.25, 0.5, 1, 2, 4, 6, 8, and 24 hours post-dose. For PO group, blood samples were collected at 0.25, 0.5, 1, 2, 4, 6, 8, and 24 hours post-dose.

The next data set concerns the target PPARα (Homo sapiens (Human), UniProt Q07869). Briefly: Transcriptional activation assay in COS7 cells, PPARα. To be noted: known agonist, 5 μM. Format: cell-based. As for the experimental part: COS-7 were cultured in 6-well plates and co-transfected with either a luciferase reporter driven by 3 copies of a PPRE and expression vector for either PPARδ, PPARα or PPARγ together with a vector harboring cDNA for β-galactosidase, serving as a transfection control. To test whether FABP4 or FABP5 mediate activation of their cognate receptors PPARγ and PPARδ, respectively, cells were also co-transfected with a plasmid harboring sequence of either FABP4 or FABP5. 18 h post-transfection, cells were placed in a serum-free medium and treated with agonist/compound. 18 h. later, cells were lysed, luciferase activity was assayed (Promega, WI, USA) and corrected for transfection efficiency by the activity of β-galactosidase.
Transcriptional activation assays were carried out utilizing COS7 cells as described above.

By pKd is commonly meant the negative decadic logarithm of the Kd, by convention in mol/L. A high value points to a low Kd. A word on the bioavailability: it is the share of a dose that reaches the circulation, judged against a reference dose that is usually intravenous.

Structures are written as SMILES. pKd: −log10 of the molar value.

FABP5, sequence (Q01469 whole entry, species assumed): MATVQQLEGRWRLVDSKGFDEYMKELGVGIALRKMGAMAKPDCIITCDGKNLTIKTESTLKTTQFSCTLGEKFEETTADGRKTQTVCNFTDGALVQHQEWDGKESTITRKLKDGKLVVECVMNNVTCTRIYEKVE
FABP7, sequence (O15540 whole entry, species assumed): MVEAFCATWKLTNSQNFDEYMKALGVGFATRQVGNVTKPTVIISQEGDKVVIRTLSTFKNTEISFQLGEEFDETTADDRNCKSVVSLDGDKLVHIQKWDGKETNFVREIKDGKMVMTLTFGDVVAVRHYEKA
FABP4, sequence (P15090 whole entry, species assumed): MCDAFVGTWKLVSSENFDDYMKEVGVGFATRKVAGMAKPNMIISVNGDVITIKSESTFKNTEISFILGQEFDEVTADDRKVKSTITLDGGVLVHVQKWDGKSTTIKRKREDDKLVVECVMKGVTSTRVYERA
FABP3, sequence (P05413 whole entry, species assumed): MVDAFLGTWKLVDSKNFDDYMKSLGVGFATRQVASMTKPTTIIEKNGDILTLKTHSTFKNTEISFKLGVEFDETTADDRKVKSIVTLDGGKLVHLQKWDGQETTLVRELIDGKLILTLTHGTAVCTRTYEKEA
PPARα, sequence (Q07869 whole entry, species assumed): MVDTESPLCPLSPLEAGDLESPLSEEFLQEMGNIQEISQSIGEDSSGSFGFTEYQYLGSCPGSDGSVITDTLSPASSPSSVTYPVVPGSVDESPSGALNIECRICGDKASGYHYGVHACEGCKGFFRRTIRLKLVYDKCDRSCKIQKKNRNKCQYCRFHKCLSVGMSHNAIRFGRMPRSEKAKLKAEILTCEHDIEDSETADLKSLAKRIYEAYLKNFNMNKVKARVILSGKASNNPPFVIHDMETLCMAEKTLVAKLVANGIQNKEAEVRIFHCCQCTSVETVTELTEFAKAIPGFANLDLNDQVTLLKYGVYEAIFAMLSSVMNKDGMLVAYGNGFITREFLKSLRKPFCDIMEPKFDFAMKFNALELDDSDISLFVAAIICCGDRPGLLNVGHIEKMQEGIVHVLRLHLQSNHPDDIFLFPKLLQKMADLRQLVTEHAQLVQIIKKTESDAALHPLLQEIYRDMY

As for `CC(C)Oc1nc(NC(=O)CSC(C)(C)C(=O)O)c(Cl)cc1Cl` [PD153, 2-((2-((3,5-dichloro-6-isopropoxypyridin-2-yl)amino)-2-oxoethyl)thio)-2-methylpropanoic acid], the negative-log Kd (pKd) was 7.10 at FABP5, 7.01 on FABP3, 6.46 on FABP7 and 7.02 at FABP4.

Take `CC(C)Oc1nc(NC(=O)COCC(=O)O)c(Cl)cc1Cl` [PD155, 2-(2-((3,5-dichloro-6-isopropoxypyridin-2-yl)amino)-2-oxoethoxy)acetic acid]: the pKd on FABP5 is 7.23; at FABP3, 6.93; on FABP7 it was 6.97; on FABP4, 7.10.

In the case of `CC(C)Oc1cc(NC(=O)CSCC(=O)O)c(Cl)cc1Cl` [Compound B4, 2-((2-((2,4-dichloro-5-isopropoxyphenyl)amino)-2-oxoethyl)thio)acetic acid, reference compound], the bioavailability in data set [1] came out at 47%.

For `Cc1cccc(Nc2cc(Cl)nc(SCC(=O)O)n2)c1C` [Wy-14643, reference compound], at PPARα, the “Activation of transcription by PPARα” value is reported as “induced activation of their respective receptors”.

For the origin of these results see patent US20250325529A1, “INHIBITORS OF FATTY ACID BINDING PROTEINS (FABPs), METHODS OF USE AND METHODS OF MAKING” (Celloram, inc., priority 2024, published 2025).
